Assay [1] is described as follows: In vitro vitamin D receptor (VDR)-mediated transcriptional potency in rat osteosarcoma ROS 17/2.8 cells. It is filed as functional. Conditions: read-out: ED50 (the source's name).
The subject of the next assay is MCF7. The experiment in a line: In vitro activity on human breast adenocarcinoma cell line MCF-7 proliferation. Type of assay: functional. Conditions: read-out: ED50 (the source's name).
Assay [2] addresses T1, Vitamin D3 receptor (Homo sapiens) (UniProt P11473).
T1 sequence (whole entry): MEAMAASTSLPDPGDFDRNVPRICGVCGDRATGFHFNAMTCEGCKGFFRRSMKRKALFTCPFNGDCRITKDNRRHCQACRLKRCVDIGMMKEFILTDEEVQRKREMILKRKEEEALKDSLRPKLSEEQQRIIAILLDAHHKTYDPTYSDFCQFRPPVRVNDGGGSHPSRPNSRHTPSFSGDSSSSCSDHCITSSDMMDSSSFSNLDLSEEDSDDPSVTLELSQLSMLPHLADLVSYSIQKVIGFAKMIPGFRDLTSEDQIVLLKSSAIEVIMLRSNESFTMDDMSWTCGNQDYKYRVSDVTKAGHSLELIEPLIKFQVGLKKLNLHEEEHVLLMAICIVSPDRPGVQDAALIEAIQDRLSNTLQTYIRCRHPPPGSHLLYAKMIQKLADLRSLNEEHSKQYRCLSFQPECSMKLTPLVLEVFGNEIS
The assay is described as follows: Binding affinity to Vitamin D3 receptor relative to 1,25D3.

A further assay deals with PBMC. The assay is described as follows: In vitro inhibition of phytohemagglutininin-induced stimulation of human peripheral blood mononuclear cells proliferation. It is filed as functional. Particulars: read-out: ED50 (the source's name).

As to `C=C1/C(=C\C=C2/CCC[C@]3(C)[C@@H]([C@@H](C)OCCCS(=O)(=O)C(C)(C)C)CC[C@@H]23)C[C@H](O)C[C@H]1O`, the results for the EC50 (in assay [1]; in the assay on MCF7; in the assay on PBMC) were 1.6 nM, 9.6 nM and 8.4 nM, respectively. The molecule also displayed a Binding affinity in assay [2] of 26%.

As for `C=C1/C(=C\C=C2/CCC[C@]3(C)[C@@H]([C@@H](C)OCCCS(=O)(=O)C(C)(C)C)CC[C@@H]23)C[C@@H](O)C[C@@H]1O`, the EC50 in assay [1] is more than 100 nM. This molecule came in with a Binding affinity in assay [2] of 0.4%.

As to `C=C1/C(=C\C=C2/CCC[C@]3(C)[C@@H]([C@@H](C)OCCCC(O)(CC)CC)CC[C@@H]23)C[C@@H](O)C[C@@H]1O` [LEXACALCITOL], the EC50 in the assay on MCF7 worked out at 0.27 nM.

These data come from ChEMBL document CHEMBL1132949, “Conceptually new 20-epi-22-oxa sulfone analogues of the hormone 1alpha,25-dihydroxyvitamin D(3): synthesis and biological evaluation” (2000).
